According to US20220125983A1, “MALODOR COUNTERACTING COMPOSITION AND AGENT AND THE USE THEREOF” (CHEMCOM S.A., priority 2019, published 2022):

Legend:
[1] = test system: perception of the earthy olfactory note; test: Sensory test: expert panel rating of odor intensity of earthy compounds without and with nefopam (Tedlar bags); format: in vivo, human; details: for Odor intensity without Nefopam, note A: earthy: scale 0 (no odor) to 5 (saturating odor), resolution 0.5, panel of five assessors; for Odor intensity of Geosmin with nefopam enantiomer as blocker, note A: earthy / Odor intensity of Geosmin with nefopam enantiomer as blocker, note B: camphoreous: Geosmin + enantiomer free base
Procedure: The composition comprising nefopam was prepared by diluting racemic nefopam in its free base form in ethanol at a concentration of 107 mg/ml The test comprised in a first step, microinjecting the earthy compound, nefopam or earthy compound+nefopam in 20 L TedlarTM bags specially conceived for gas sampling, previously loaded with a known volume of pure air (from oil free compressor with additional charcoal filters). The earthy compounds were solubilized in ethanol at a suitable concentration (see table 2) and injected in the 20 L […] bag. The final concentration in the bag varied between 7 mg/m^3' to 383 mg/m^3, (table 2), depending on the odor strength of the compound while the concentration of nefopam in the bags was fixed at 54 mg/m^3. [table] The odor presentation device comprised a cylinder filled with clean air. The bag was inserted in the cylinder and connected to a sampling installation in the cylinder by means of a valve. By controlled injection of clean air into the cylinder, the interior pressure was raised and the sampling air was pressed in a controlled manner out of the sample container through the opened valve. This sampling air was transferred to the nose of the corresponding sensory odor panel member by means of a funnel. By this means, each sensory odor panel member received an identical sample with a standardized volume flow and a constant provision time. The outlet flow rate was between 10-20 L/min (in order to avoid any mixing with ambient air before reaching the nose). The expert panel of five assessors entered the room 15 minutes before starting the test. The basic standard test was a rating in intensity and the use of the closest chemical descriptors according to the following order of presentation: 1. earthy compound 2. Mix: earthy compound (at same concentrations as for 1)+Nefopam. Each assessor could smell for few seconds. A pause of minimum 1 minute was considered between presentations. The individual rating was done with a resolution of 0.5 on a scale ranging from 0 (no odor) to 5 (saturating odor). Both enantiomers of nefopam, (+)-nefopam and (-)-nefopam in their free base from obtained as described in examples 1 and 2, respectively, were assessed separately as blockers of the perception of the earthy note of geosmin, using the same procedure as described in example 3.

human nose = details: as low as; cited from earlier work
[2] = earthy compound alone in bag at Table 2 concentration
[3] = earthy compound alone in bag at Table 2 concentration, scale 0 to 5
[4] = 2-ethylfenchol 188 mg/m^3 + racemic nefopam free base 54 mg/m^3 in bag, scale 0 to 5
[5] = 2-methylisoborneol 150 mg/m^3 + racemic nefopam free base 54 mg/m^3 in bag, scale 0 to 5
[6] = Ambrinol R 29 mg/m^3 + racemic nefopam free base 54 mg/m^3 in bag, scale 0 to 5
[7] = Ambrinol S 26 mg/m^3 + racemic nefopam free base 54 mg/m^3 in bag, scale 0 to 5
[8] = Ambrinol racemic 25 mg/m^3 + racemic nefopam free base 54 mg/m^3 in bag, scale 0 to 5
[9] = Geosmin 19 mg/m^3 + racemic nefopam free base 54 mg/m^3 in bag, scale 0 to 5
[10] = Huminol 11 mg/m^3 + racemic nefopam free base 54 mg/m^3 in bag, scale 0 to 5
[11] = Methyl geosmin 7 mg/m^3 + racemic nefopam free base 54 mg/m^3 in bag, scale 0 to 5
[12] = Patchouli oil 383 mg/m^3 + racemic nefopam free base 54 mg/m^3 in bag, scale 0 to 5
[13] = earthy compounds of Table 3, nefopam 54 mg/m^3
[14] = Example 4, same procedure as example 3, scale 0 to 5
[15] = Example 4, Geosmin alone, same procedure as example 3, scale 0 to 5

SMILES: CC1(O)CCC2C(=CCCC2(C)C)C1 (racemic) [Ambrinol racemic, 2,5,5-trimethyl-1,3,4,4a,6,7-hexahydronaphthalen-2-ol]
- Odor intensity without Nefopam, note A: earthy [1, 2]: 1.5
- Odor intensity without Nefopam, note B: α-pinene [1, 3]: 2.5

SMILES: CN1CCOC(c2ccccc2)c2ccccc2C1 (racemic) [Nefopam, (RS)-5-methyl-1-phenyl-1,3,4,6-tetrahydro-2,5-benzoxazocine]
- Odor intensity with Nefopam, 2-ethylfenchol note A: earthy [1, 4]: 0
- Odor intensity with Nefopam, 2-ethylfenchol note B: camphoreous [1, 4]: 3
- Odor intensity with Nefopam, 2-methylisoborneol note A: earthy [1, 5]: 0
- Odor intensity with Nefopam, 2-methylisoborneol note B: camphoreous [1, 5]: 2.5
- Odor intensity with Nefopam, Ambrinol R note A: earthy [1, 6]: 0.5
- Odor intensity with Nefopam, Ambrinol R note B: scatole [1, 6]: 3.5
- Odor intensity with Nefopam, Ambrinol S note A: earthy [1, 7]: 0.5
- Odor intensity with Nefopam, Ambrinol S note B: vetivert [1, 7]: 2
- Odor intensity with Nefopam, Ambrinol racemic note A: earthy [1, 8]: 0
- Odor intensity with Nefopam, Ambrinol racemic note B: α-pinene [1, 8]: 2.5
- Odor intensity with Nefopam, Geosmin note A: earthy [1, 9]: 1
- Odor intensity with Nefopam, Geosmin note B: camphoreous [1, 9]: 2.5
- Odor intensity with Nefopam, Huminol note A: earthy [1, 10]: 1
- Odor intensity with Nefopam, Huminol note B: camphoreous [1, 10]: 2
- Odor intensity with Nefopam, Methyl Geosmin note A: earthy [1, 11]: 0.5
- Odor intensity with Nefopam, Methyl Geosmin note B: α-pinene [1, 11]: 1.5
- Odor intensity with Nefopam, Patchouli Oil note A: earthy [1, 12]: 0.5
- Odor intensity with Nefopam, Patchouli Oil note B: α-pinene [1, 12]: 2.5
- Intensity of the other olfactory notes associated to the different compounds in the presence of racemic nefopam [1, 13]: not significantly decreased
- Typical earthy olfactory note associated with the tested compounds when smelled in the presence of racemic nefopam [1, 13]: strongly reduced

SMILES: CCC1(O)C2(C)CCC(C2)C1(C)C (centres unmarked) [2-ethylfenchol, 6-ethyl-1,5,5-trimethylbicyclo[2.2.1]heptan-6-ol]
- Odor intensity without Nefopam, note A: earthy [1, 2]: 3
- Odor intensity without Nefopam, note B: camphoreous [1, 3]: 3.5

SMILES: CC1(O)CC2CCC1(C)C2(C)C (centres unmarked) [2-methylisoborneol, 1,2,7,7-Tetramethylbicyclo[2.2.1]heptan-2-ol]
- Odor intensity without Nefopam, note A: earthy [1, 2]: 3
- Odor intensity without Nefopam, note B: camphoreous [1, 3]: 0
- Detection threshold (human nose) (human nose): 25 ng/L

SMILES: CN1CCO[C@@H](c2ccccc2)c2ccccc2C1 [(+)-Nefopam, (S)-5-methyl-1-phenyl-1,3,4,6-tetrahydro-2,5-benzoxazocine]
- Odor intensity of Geosmin with nefopam enantiomer as blocker, note A: earthy [1, 14]: 3
- Odor intensity of Geosmin with nefopam enantiomer as blocker, note B: camphoreous [1, 14]: 3

SMILES: CN1CCO[C@H](c2ccccc2)c2ccccc2C1 [(−)-Nefopam, (R)-5-methyl-1-phenyl-1,3,4,6-tetrahydro-2,5-benzoxazocine]
- Odor intensity of Geosmin with nefopam enantiomer as blocker, note A: earthy [1, 14]: 0
- Odor intensity of Geosmin with nefopam enantiomer as blocker, note B: camphoreous [1, 14]: 3

SMILES: CC1(C)CCC=C2C[C@@](C)(O)CC[C@H]21 [Ambrinol R, (2S, 4aS)-(−)-2,5,5-Trimethyl-1,2,3,4,4a,5,6,7-octahydro-naphthalen-2-ol]
- Odor intensity without Nefopam, note A: earthy [1, 2]: 1
- Odor intensity without Nefopam, note B: scatole [1, 3]: 3.5

SMILES: CC1(C)CCC=C2C[C@](C)(O)CC[C@@H]21 [Ambrinol S, (2R, 4aR)-(+)-2,5,5-Trimethyl-1,2,3,4,4a,5,6,7-octahydro-naphthalen-2-ol]
- Odor intensity without Nefopam, note A: earthy [1, 2]: 2.5
- Odor intensity without Nefopam, note B: vetivert [1, 3]: 1.5

SMILES: CC1CCCC2(C)CCCCC12O (centres unmarked) [Geosmin, 4,8a-dimethyl-1,2,3,4,5,6,7,8-octahydronaphthalen-4a-ol]
- Odor intensity without blocker, note A: earthy [1, 15]: 3
- Odor intensity without blocker, note B: camphoreous [1, 15]: 3
- Odor intensity without Nefopam, note A: earthy [1, 2]: 3
- Odor intensity without Nefopam, note B: camphoreous [1, 3]: 3
- Detection threshold (human nose) (human nose): 10 ng/L

SMILES: CCC1(O)C2(C)CCCC1(C)CC2 (centres unmarked) [Huminol, 8-ethyl-1,5-dimethylbicyclo[3.2.1]octan-8-ol]
- Odor intensity without Nefopam, note A: earthy [1, 2]: 2.5
- Odor intensity without Nefopam, note B: camphoreous [1, 3]: 2.5

SMILES: CC1(C)CCCC2(C)CCCCC12O (centres unmarked) [Methyl Geosmin, 4,4,8a-trimethyl-1,2,3,4,5,6,7,8-octahydronaphthalen-4a-ol]
- Odor intensity without Nefopam, note A: earthy [1, 2]: 2.5
- Odor intensity without Nefopam, note B: α-pinene [1, 3]: 1.5
